# Paper PMC8353992 (Journal of medicinal chemistry, 2021)
# Tests used:
# [1] = for decrease in CLint compared to 36: human, rat, s9
# SARS-CoV-2 3CL^pro = SARS-CoV-2 3CL^pro (Severe acute respiratory syndrome coronavirus 2, UniProt P0DTD1); assay type: biochemical
# [2] = human, pH 7.4
compound,measurement,setting,value
"O=C(Nc1ccc(N(Cc2ccsc2)C(=O)Cn2nnc3ccccc32)cc1)C1CC1 [Compound 1, reference compound]",microsomal clearance,[1]; microsomes,exceptionally high
"O=C(Cn1nnc2ccccc21)N(Cc1ccsc1)c1ccc(-c2cccnc2)cc1 [Compound 8, 2-(1H-Benzo[d][1,2,3]triazol-1-yl)-N-(4-(pyridin-3-yl)phenyl)-N-(thiophen-3-ylmethyl)acetamide]",ligand efficiency (LE),SARS-CoV-2 3CL^pro,0.27
"O=C(Cn1nnc2ccccc21)N(Cc1cccc(Cl)c1)c1ccc(-c2cn[nH]c2)cc1 [Compound 36, N-(4-(1H-Pyrazol-4-yl)phenyl)-2-(1H-benzo[d][1,2,3]triazol-1-yl)-N-(3-chlorobenzyl)acetamide]",M1 metabolite formation (oxidation of the benzylic 3-chlorophenyl ring),[2],60%
same,M3 metabolite formation (cleavage of the 3-chlorobenzyl group),[2],7%
"O=C(Cc1cccnc1)N(Cc1cccc(Cl)c1)c1ccc(-c2cn[nH]c2)cc1 [Compound 42, N-[(3-Chlorophenyl)methyl]-N-[4-(1H-pyrazol-4-yl)phenyl]-2-(3-pyridyl)acetamide]",decrease in CLint compared to 36,[1],2 fold
"O=C(Cc1cncnc1)N(Cc1cccc(Cl)c1)c1ccc(-c2cn[nH]c2)cc1 [Compound 43, N-[(3-Chlorophenyl)methyl]-N-[4-(1H-pyrazol-4-yl)phenyl]-2-pyrimidin-5-yl-acetamide]",decrease in CLint compared to 36,[1],4 fold
